Measurements published in patent US10722464B2, “Compositions for delivery of drug combinations” (priority 2001, dated 2020).

Test: in vivo
Details: SCID/rag2, mouse, plasma, iv, 10 mg/kg

- AUC: 112 ng·h/mL
SMILES: CCC1=C[C@@H]2CN(C1)Cc1c([nH]c3ccccc13)[C@@](C(=O)OC)(c1cc3c(cc1OC)N(C)[C@H]1[C@@](O)(C(=O)OC)[C@H](OC(C)=O)[C@]4(CC)C=CCN5CC[C@]31[C@@H]54)C2 [free vinorelbine, vinorelbine]
